# Legend:
# [1] = XTT proliferation / drug combination assay, HL60-ABCB1; conditions: human, HL60-ABCB1 cells
# Experimental: (§1) The MTT method is not readily adapted for use with suspension cell cultures, therefore the XTT assay was used to assess the proliferation of HL60 cells. Briefly, HL60-par, HL60-ABCB1, HL60-ABCG2, and HL60-ABCC1 cells were seeded at 2 × 10^4 cells/well in 96-well culture plates. Immediately after seeding, dilutions of the tested drugs or drug combinations were added to the cells. The plates were then incubated under standard conditions (37 °C, 5% CO2) for 48 h, after which XTT solution in PBS (1 mg/mL) and phenazine methosulfate (7.50 µg/mL) were added to the cells and the plates were incubated for another 5 h. Finally, the cells’ absorbance was measured at 450 nm using a microplate reader (Infinite M200, Tecan, Salzburg, Austria). This method was used to assess the effect of ABC transporters on sensitivity to ensartinib and in drug combination assays.
# (§2) Experiments focusing on the modulation of ABC transporter-mediated resistance were performed as described previously. The parent MDCKII and HL60 cells and their ABCB1-, ABCG2-, and ABCC1-overexpressing counterparts were seeded at the densities specified above onto 96-well culture plates and cultured for 24 h. The medium was subsequently replaced with serial dilutions of ensartinib alone or with various concentrations of a model MDR-susceptible cytostatic agent (daunorubicin or mitoxantrone) with or without 10 µM ensartinib. After 48 h incubation, the cells’ viability was determined as described above. In addition to performing IC50-shift analyses, the viability measurements were converted to FA (fraction of cells affected) values and the effects of drug combinations were quantified using the Chou-Talalay combination index (CI) method as implemented in CompuSyn 3.0.1 (ComboSyn Inc., Paramus, NJ, USA). The effects of concomitantly administered drugs were classified as synergistic (CI < 0.9), additive (0.9 < CI < 1.1), or antagonistic (CI > 1.1) based on the computed CI values.
# HL60-ABCB1 cells = test: as above; conditions: HL60-ABCB1
# Experimental: as §1, §2
# ABCG2 = target: T1, ABCG2 (Homo sapiens, UniProt Q9UNQ0); test: mitoxantrone accumulation assay (flow cytometry) in MDCKII-ABCG2 cells; assay type: cell-based; conditions: 1 µM mitoxantrone, 1 h, read-out: IC50, inhibition of ABCG2 (mitoxantrone accumulation)
# T1 construct: expressed in transfected cells; host or cells: MDCKII-ABCG2 (from Dr. Alfred Schinkel, The Netherlands Cancer Institute)
# T1 sequence (Q9UNQ0 1-655): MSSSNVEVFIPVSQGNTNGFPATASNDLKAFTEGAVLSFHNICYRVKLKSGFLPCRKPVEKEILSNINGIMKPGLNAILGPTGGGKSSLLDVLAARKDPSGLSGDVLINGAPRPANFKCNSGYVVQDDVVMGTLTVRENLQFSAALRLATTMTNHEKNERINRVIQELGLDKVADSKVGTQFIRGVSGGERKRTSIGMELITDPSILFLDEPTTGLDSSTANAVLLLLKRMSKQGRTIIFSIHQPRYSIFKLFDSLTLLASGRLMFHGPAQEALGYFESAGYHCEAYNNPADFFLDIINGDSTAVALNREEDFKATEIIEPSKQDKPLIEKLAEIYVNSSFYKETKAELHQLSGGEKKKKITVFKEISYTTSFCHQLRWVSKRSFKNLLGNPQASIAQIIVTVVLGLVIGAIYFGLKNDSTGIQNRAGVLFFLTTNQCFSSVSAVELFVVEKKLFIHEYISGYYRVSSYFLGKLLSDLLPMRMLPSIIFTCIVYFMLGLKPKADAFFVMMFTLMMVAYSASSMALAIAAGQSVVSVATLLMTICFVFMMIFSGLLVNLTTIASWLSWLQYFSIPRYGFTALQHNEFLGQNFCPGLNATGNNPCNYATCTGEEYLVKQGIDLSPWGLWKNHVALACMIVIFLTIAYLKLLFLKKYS
# Experimental: The flow-cytometric inhibitory assay with daunorubicin and mitoxantrone was performed with minor modifications as described previously. MDCKII-par, MDCKII-ABCB1, MDCKII-ABCG2, and MDCKII-ABCC1 cell lines were seeded at densities of 22.0 × 10^4, 15.0 × 10^4, 25.0 × 10^4, and 22.0 × 10^4 cells/well, respectively, on a 12-well plate and then incubated for 24 h to reach approximately 70–80% confluence. Further steps including cell washing, the preparation of drug/model inhibitor dilutions, and their addition to cells were performed as described above. After the 10 min pre-incubation period, 2 µM daunorubicin (a substrate of ABCB1/ABCC1) or 1 µM mitoxantrone (ABCG2 substrate) were promptly added to all wells other than those containing background samples, then the plate was incubated for 1 h under standard conditions. The plates were subsequently placed on ice, the cells were washed twice with ice-cold 1× PBS, and 10× trypsin without phenol red was added. After complete trypsinization, the cells were vigorously resuspended in ice-cold 1× PBS containing 2% FBS. Samples were then transferred into test-tubes and kept on ice until their fluorescence could be measured using a flow cytometer (BD FACSCanto II, Allschwil, Switzerland). The excitation/emission wavelengths for daunorubicin and mitoxantrone were 490/565 and 640/670 nm, respectively.
structure (smiles),measurement,setting,value
"C[C@@H]1CN(C(=O)c2ccc(NC(=O)c3cc(O[C@H](C)c4c(Cl)ccc(F)c4Cl)c(N)nn3)cc2)C[C@H](C)N1 [ensartinib, Ensartinib]",IC50 at 48 h,[1],29.6 µM
same,combination effect (Chou-Talalay combination index),HL60-ABCB1 cells; 10 µM ensartinib with daunorubicin,synergistic (synergistic (CI < 0.9))
same,RR (reversal ratio),"HL60-ABCB1 cells; daunorubicin, IC50 single drug / IC50 combined with 10 µM ensartinib",22.1
same,IC50,ABCG2,28.3 µM

# Reference: PMC7226045, “Ensartinib (X-396) Effectively Modulates Pharmacokinetic Resistance Mediated by ABCB1 and ABCG2 Drug Efflux Transporters and CYP3A4 Biotransformation Enzyme” (Cancers, 2020)
